Measurements as given in ChEMBL document CHEMBL3832544, “DailyMed|setid=fb8a2e5b-fd23-4977-81de-a95f4af168e2 | ONMEL- itraconazole tablet|Merz Pharmaceuticals, LLC”.

Experiments:
Format in all cases: ADME, organism-based
Design in all cases: dose 200 mg, route oral
[1] = (§1) The pharmacokinetic parameters of Itraconazole after single oral administration of 200 mg Itraconzole to 9 male and 9 female healthy subjects in fasting and in fed conditions; conditions: both, human, in vivo, dietary status Fed, dosed compound id 2, dosed compound name ITRACONAZOLE, gender male and female, regimen Single dose, tissue Plasma
[2] = system: Homo sapiens; assay: as §1; conditions: in vivo, po, dietary status Fasted, dosed compound id 2, dosed compound name ITRACONAZOLE, gender male and female, regimen Single dose, tissue Plasma
[3] = (§2) The steady-state pharmacokinetics of itraconazole analyzed after multiple oral dosing of 16 healthy volunteers with 200 mg Itraconazole following a moderate-fat breakfast once daily for 14 days in an open-label study; conditions: human, in vivo, dietary status Fed with moderate-fat breakfast, dose 200 mg, dosed compound id 2, dosed compound name ITRACONAZOLE, gender male and female, regimen Multiple dose, route oral, tissue Plasma
[4] = system: Homo sapiens; assay: as §2; conditions: in vivo, po, 336 h, dietary status Fed with moderate-fat breakfast, dosed compound id 2, dosed compound name ITRACONAZOLE, gender male and female, regimen Multiple dose, tissue Plasma

Work on `CCC(C)n1ncn(-c2ccc(N3CCN(c4ccc(OCC5COC(Cn6cncn6)(c6ccc(Cl)cc6Cl)O5)cc4)CC3)cc2)c1=O` (configuration not stated) [ITRACONAZOLE] yielded a Cmax ([1]; po, 200 mg) of 213 ng/mL, an AUC ([1]; po, 200 mg, read-out: AUC(0-inf)) of 3340 ng·h/mL and a Tmax ([1]; dose 200 mg, route oral) of 4.6 h. The Tmax ([2]; dose 200 mg) was 2.9 h, the “AUC(0-inf)” value [2] was 2270 ng·h/mL and the Cmax [2] was 162 ng/mL. For the same molecule, the Tmax ([3]; study dosing duration 1 day) was 4 h, the half-life ([3]; study dosing duration 14 day, read-out: t1/2 ss (converted)) was 36.8 h and the “AUC(0-24)” value ([4]; study dosing duration 1 day) was 905.09 ng·h/mL. The Cmax ss ([4]; study dosing duration 1 day) was 116.8 ng/mL, the “AUC(0-24)” value ([4]; study dosing duration 14 day) was 9046.81 ng·h/mL and the Cmax ss ([4]; study dosing duration 14 day) was 658.1 ng/mL.
